Data published in paper PMC4301037, “Identification and Structure–Function Analysis of Subfamily Selective G Protein-Coupled Receptor Kinase Inhibitors” (ACS Chemical Biology, 2014).
Where two headings read alike, the source gives them in different places.

What was measured:
[1] = biological target: T1, bovine GRK5 (Bos taurus, UniProt P43249); assay: Primary DSF inhibitor screen, GRK5; format: binding
T1 construct: when using full-length kinases as the receptor[37] instead of isolated kinase domains; made in house
T1 sequence (P43249 whole entry, the tested form may be a part): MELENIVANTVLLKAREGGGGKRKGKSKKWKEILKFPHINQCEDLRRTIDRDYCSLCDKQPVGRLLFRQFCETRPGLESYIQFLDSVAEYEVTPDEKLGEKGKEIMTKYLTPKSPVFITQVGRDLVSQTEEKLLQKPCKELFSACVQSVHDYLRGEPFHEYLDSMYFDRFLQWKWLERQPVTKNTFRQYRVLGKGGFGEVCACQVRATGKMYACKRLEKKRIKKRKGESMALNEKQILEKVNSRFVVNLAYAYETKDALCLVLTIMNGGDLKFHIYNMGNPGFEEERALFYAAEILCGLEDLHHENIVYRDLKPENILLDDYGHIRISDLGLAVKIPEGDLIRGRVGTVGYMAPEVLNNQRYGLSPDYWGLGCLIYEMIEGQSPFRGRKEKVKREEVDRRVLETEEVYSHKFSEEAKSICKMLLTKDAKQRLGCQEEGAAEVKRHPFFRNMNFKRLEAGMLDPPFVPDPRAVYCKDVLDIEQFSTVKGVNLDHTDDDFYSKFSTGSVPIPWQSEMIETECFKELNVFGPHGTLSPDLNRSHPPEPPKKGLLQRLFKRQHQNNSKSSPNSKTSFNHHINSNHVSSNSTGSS

[2] = biological target: T2, human GRK2S670A (Homo sapiens, UniProt P25098, S670A); assay: Primary DSF (differential scanning fluorimetry) inhibitor screen, GRK2; format: binding
T2 construct: when using full-length kinases as the receptor[37] instead of isolated kinase domains; made in house
T2 sequence (P25098 1-689 S670A): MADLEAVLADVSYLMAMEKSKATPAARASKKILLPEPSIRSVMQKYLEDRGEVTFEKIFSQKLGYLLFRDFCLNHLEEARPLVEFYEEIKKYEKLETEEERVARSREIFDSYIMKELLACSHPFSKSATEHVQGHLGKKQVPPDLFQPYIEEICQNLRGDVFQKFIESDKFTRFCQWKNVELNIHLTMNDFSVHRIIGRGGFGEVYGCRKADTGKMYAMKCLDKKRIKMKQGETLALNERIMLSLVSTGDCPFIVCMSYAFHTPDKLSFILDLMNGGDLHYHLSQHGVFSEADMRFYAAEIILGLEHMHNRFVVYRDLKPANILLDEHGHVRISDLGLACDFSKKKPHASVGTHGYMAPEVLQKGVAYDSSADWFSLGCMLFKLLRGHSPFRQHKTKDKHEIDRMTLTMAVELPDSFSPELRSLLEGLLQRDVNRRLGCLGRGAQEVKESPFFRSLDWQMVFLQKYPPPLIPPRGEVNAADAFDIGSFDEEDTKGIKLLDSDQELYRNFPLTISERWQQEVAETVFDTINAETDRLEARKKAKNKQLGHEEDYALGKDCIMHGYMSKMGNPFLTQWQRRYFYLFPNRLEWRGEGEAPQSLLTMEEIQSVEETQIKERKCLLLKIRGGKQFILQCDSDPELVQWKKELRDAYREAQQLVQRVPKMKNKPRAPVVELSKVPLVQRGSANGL

[3] = biological target: T3, GRK2 (Bos taurus, UniProt P21146, S670A); assay: In vitro phosphorylation assay (tubulin, 5 μM ATP), GRK2; format: biochemical, bovine; settings: read-out: GRK2 log IC50 (converted)
T3 construct: made in house
T3 sequence (P21146 1-689 S670A): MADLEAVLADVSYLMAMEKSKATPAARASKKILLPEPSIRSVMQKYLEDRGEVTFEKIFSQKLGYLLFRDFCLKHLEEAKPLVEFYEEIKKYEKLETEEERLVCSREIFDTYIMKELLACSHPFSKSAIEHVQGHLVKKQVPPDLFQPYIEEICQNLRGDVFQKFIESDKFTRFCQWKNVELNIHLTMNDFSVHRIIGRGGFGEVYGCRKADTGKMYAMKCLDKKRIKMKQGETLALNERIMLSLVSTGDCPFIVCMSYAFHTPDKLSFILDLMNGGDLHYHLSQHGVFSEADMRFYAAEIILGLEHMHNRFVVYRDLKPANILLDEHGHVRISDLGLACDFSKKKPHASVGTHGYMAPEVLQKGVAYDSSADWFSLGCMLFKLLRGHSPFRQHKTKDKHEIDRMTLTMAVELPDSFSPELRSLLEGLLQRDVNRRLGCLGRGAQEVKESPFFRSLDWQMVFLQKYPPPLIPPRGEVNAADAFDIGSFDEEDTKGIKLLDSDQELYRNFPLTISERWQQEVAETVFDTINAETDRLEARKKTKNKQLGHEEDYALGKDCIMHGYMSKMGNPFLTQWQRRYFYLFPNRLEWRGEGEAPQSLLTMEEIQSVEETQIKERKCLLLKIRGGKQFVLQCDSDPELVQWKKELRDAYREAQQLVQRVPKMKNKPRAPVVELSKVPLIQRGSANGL

[4] = biological target: T4, GRK2 (Homo sapiens, UniProt P25098, S670A); assay: DSF retest (confirmation), GRK2; format: binding
T4 construct: made in house
T4 sequence (P25098 1-689 S670A): T2 sequence (P25098 1-689 S670A)

[5] = biological target: T5, protein kinase A (PKA) (Mus musculus, UniProt P05132); assay: DSF retest (confirmation), PKA; format: binding
T5 construct: His tag (inferred from pET15b vector and Ni-NTA column) (N); host or cells: E. coli Rosetta(DE3)pLysS
Experimental: Fourteen compounds (Figure 1a–c), including all GRK2 hits except staurosporine, and the most stabilizing pyrrolopyrimidine-containing compounds were obtained from GSK and retested using DSF on GRKs representing each vertebrate subfamily (GRK1, 2, and 5) (Table 1). […] The ability of these compounds to shift the Tm of the related AGC family kinase member protein kinase A (PKA) was also assessed (Table 1). In no case was ΔTm greater for PKA than for one of the tested GRKs. […]. There was no correlation for GRK1 (Figure 2c).
DSF was conducted using a ThermoFluor plate reader (Johnson & Johnson) in a buffer containing 20 mM HEPES, pH 7.0, 5 mM MgCl2, 2 mM DTT, and 1 mM CHAPS with 0.2 mg mL^–1 final concentration of GRK or PKA and 100 μM 1-anilinonaphthalene-8-sulfonic acid.[14]

[6] = biological target: T6, PKA (Mus musculus, UniProt P05132); assay: PKA inhibition assay (ADP-Glo, CREBtide, 100 μM ATP); format: biochemical; settings: logarithm of IC50 (−3.3 corresponds to 0.5 mM, footnote c); 438 nM PKA, 100 μM ATP, CREBtide; read-out: PKA log IC50 (converted)
T6 construct: His tag (inferred from pET15b vector and Ni-NTA column) (N); host or cells: E. coli Rosetta(DE3)pLysS

[7] = biological target: T7, GRK5 (Bos taurus, UniProt P43249); assay: In vitro phosphorylation assay (tubulin, 5 μM ATP), GRK5; format: biochemical, bovine; settings: read-out: GRK5 log IC50 (converted)
T7 construct: when using full-length kinases as the receptor[37] instead of isolated kinase domains; made in house
T7 sequence (P43249 whole entry, the tested form may be a part): as the sequence (P43249 whole entry, the tested form may be a part) above

[8] = biological target: T7, GRK5; assay: DSF retest (confirmation), GRK5; format: binding, bovine
[9] = 10 μM compound, 2 μM kinase, relative to DMSO control, read-out: ΔTm, primary screen, GRK5
[10] = 10 μM compound, 2 μM kinase, relative to DMSO control
[11] = relative to intrinsic melting point of the kinase

Cc1ccc(NC(=O)CC2CC2)cc1-c1ccc(C(=O)NCC2CC2)cc1 [GW796920X]
ΔTm at 10 µM [1, 9]: 3.82 °C

Brc1c(Br)c(Br)c2[nH]nnc2c1Br [4,5,6,7-Tetrabromobenzo-triazole]
ΔTm, primary screen, GRK5 [1, 10]: 8.22 °C

O=c1cc(-c2ccc(O)cc2)oc2cc(O)cc(O)c12 [Apigenin, 4',5,7-Trihydroxyflavone]
ΔTm at 10 µM [1, 9]: 2.9 °C

COC(=O)[C@@]1(O)C[C@H]2O[C@]1(C)n1c3ccccc3c3c4c(c5c6ccccc6n2c5c31)C(=O)NC4 [K252a]
ΔTm, primary screen, GRK5 [1, 10]: 9.89 °C

COc1cc(C)c(N(C)C(=O)CN(C)C)cc1Nc1nc(Nc2cccc(F)c2C(N)=O)c2cc[nH]c2n1 [GSK2219385A]
ΔTm at 10 µM [1, 9]: 3.58 °C

O=C1NC(=NCc2cccs2)S/C1=C\c1ccc2ncccc2c1 [RO-3306]
ΔTm, primary screen, GRK5 [1, 10]: 5.48 °C

Nc1ncnc2c1c(I)cn2[C@@H]1O[C@H](CO)[C@@H](O)[C@H]1O [5-Iodotubercidin, 4-Amino-5-iodo-7-(b-D-ribofuranosyl)pyrrolo[2,3-d]pyrimidine]
ΔTm, primary screen, GRK5 [1, 10]: 2.22 °C

CN1CC[C@H](c2c(O)cc(O)c3c(=O)cc(-c4ccccc4Cl)oc23)[C@H](O)C1 [Flavopiridol]
ΔTm at 10 µM [1, 9]: 4.13 °C

O=S(=O)(CCNCc1ccc(-c2ccc3ncnc(Nc4ccc(OCc5cccc(F)c5)c(Cl)c4)c3c2)o1)c1ccccc1 [GW633459A]
ΔTm at 10 µM [1, 9]: 3.27 °C

CN[C@@H]1C[C@H]2O[C@@](C)([C@@H]1OC)n1c3ccccc3c3c4c(c5c6ccccc6n2c5c31)C(=O)NC4 [Staurosporine]
ΔTm, primary screen, GRK2 [2, 10]: 5.4 °C | ΔTm at 10 µM ([2]; read-out: ΔTm, primary screen, GRK2, 10 μM compound, 2 μM kinase, relative to DMSO control): 5.37 °C | ΔTm, primary screen, GRK5 [1, 10]: 12 °C | ΔTm at 10 µM [1, 9]: 11.9 °C

CC(C)[C@H](CO)Nc1nc(Nc2cccc(Cl)c2)c2ncn(C(C)C)c2n1 [Purvalanol A, 2-(1R-Isopropyl-2-hydroxyethylamino)-6-(3-chloroanilino)-9-isopropyl-purine]
ΔTm at 10 µM [1, 9]: 6.44 °C

COC(=O)Nc1nc2ccc(S(=O)(=O)c3ccc(NC(=O)Nc4cc(C(F)(F)F)ccc4F)cc3)cc2[nH]1 [GW680908A]
ΔTm at 10 µM [1, 9]: 4.07 °C

O=C1NC(=O)C(c2cn(CCCn3ccnc3)c3ccccc23)=C1Nc1ccccc1 [PKC beta inhibitor]
ΔTm, primary screen, GRK5 [1, 10]: 3.13 °C

COC(=O)Nc1nc2ccc(Sc3ccc(NC(=O)Nc4cc(C(F)(F)F)ccc4F)cc3)cc2[nH]1 [GW607049C]
ΔTm at 10 µM [1, 9]: 3.59 °C

CS(=O)(=O)CCNCc1coc(-c2ccc3ncnc(Nc4ccc(OCc5ccccc5)cc4)c3c2)c1 [GW566221A]
ΔTm at 10 µM [1, 9]: 2.58 °C

CC1=C(C(=O)Nc2ccc3[nH]nc(C)c3c2)C(c2ccc(C(F)(F)F)cc2)CC(=O)N1 (stereo not shown) [GSK466314A]
ΔTm at 10 µM [1, 9]: 3.54 °C

IGF-1R Inhibitor II
ΔTm, primary screen, GRK5 [1, 10]: 2.42 °C

CCCN1CCC(Oc2cc(Nc3nc(Nc4cccc(F)c4C(N)=O)c4cc[nH]c4n3)c(OC)cc2Cl)CC1 [GSK1713088A]
IC50 [3]: 6.31 µM | GRK2 Tm ([4]; 0.2 mg mL^–1 kinase): 44.2 °C | GRK2 ΔTm [4, 11]: 6.7 °C | PKA Tm ([5]; 0.2 mg mL^–1 kinase): 45.8 °C | PKA ΔTm [5, 11]: 0.4 °C | ΔTm, primary screen, GRK5 [1, 10]: 7.4 °C | ΔTm at 10 µM [1, 9]: 7.37 °C | rank in the primary screen, GRK5 ([1]; rank ordering of compounds in primary DSF screen, 10 μM compound): 11 | IC50 [6]: > 501 µM | IC50 [7]: 3.16 µM | GRK5 Tm ([8]; 0.2 mg mL^–1 kinase): 40.3 °C | GRK5 ΔTm [8, 11]: 13.6 °C

C[C@@H](Oc1cc(-n2cnc3ccc(OCC4CCN(C)CC4)cc32)sc1C(N)=O)c1ccccc1C(F)(F)F [GSK326090A]
ΔTm at 10 µM [1, 9]: 2.06 °C

CS(=O)(=O)CCNCc1ccc(-c2ccc3ncnc(Nc4ccc(OCc5ccccc5)c(Br)c4)c3c2)o1 [GW580496A]
ΔTm at 10 µM [1, 9]: 4.33 °C

O=c1c(-c2ccc(O)cc2)coc2cc(O)cc(O)c12 [Genistein, 4',5,7-Trihydroxyisoflavone]
ΔTm at 10 µM [1, 9]: 2.46 °C

O=C1Nc2ccccc2/C1=C/Nc1ccc2[nH]c(=O)[nH]c2c1 [GW284408X]
ΔTm at 10 µM [1, 9]: 2.4 °C

NS(=O)(=O)c1ccc(NN=C2C(=O)Nc3ccc(C(=O)NCc4ccncc4)cc32)cc1 [GW300657X]
ΔTm at 10 µM [1, 9]: 3.89 °C

O=C1Nc2ccccc2C1=Cc1c(Cl)[nH]c2ccccc12 [3-(2-Chloro-3-indolylmethylene)-1,3-dihydroindol-2-one]
ΔTm, primary screen, GRK5 [1, 10]: 2.98 °C

Nc1nonc1-c1nc2cnccc2n1C1CC1 [SB-736302]
ΔTm at 10 µM [1, 9]: 2.86 °C

O=C(Nc1ccc(Oc2ccc3nc(NC(=O)c4ccccc4)[nH]c3c2)cc1)Nc1cc(C(F)(F)F)ccc1F [GW709042A]
ΔTm at 10 µM [1, 9]: 3.88 °C

COC(=O)Nc1nc2ccc(Oc3ccc(NC(=O)Nc4cccc(C(=O)O)c4)cc3)cc2[nH]1 [GW701427A]
ΔTm at 10 µM [1, 9]: 3.25 °C

NS(=O)(=O)c1ccc(N/N=C2\C(=O)Nc3ccc(C(=O)NCCc4c[nH]cn4)cc32)cc1 [GW300660X]
ΔTm at 10 µM [1, 9]: 3.03 °C

O=c1c(O)c(-c2ccc(O)c(O)c2)oc2cc(O)cc(O)c12 [Quercetin, 3,3',4',5,7-Pentahydroxyflavone]
ΔTm at 10 µM [1, 9]: 10.6 °C

Clc1ccc(CNc2nccc(-c3cnn4ncccc34)n2)cc1 [GW781673X]
ΔTm at 10 µM ([1]; read-out: ΔTm, primary screen, GRK5, 10 μM compound, 2 μM kinase, relative to DMSO control): 2.27 °C

CCc1nn2ncccc2c1-c1ccnc(NC2CC2)n1 [GW683768X]
ΔTm at 10 µM [1, 9]: 2.22 °C

Cc1cc(O)cc(C)c1/C=C/c1cncc(C(=O)OC(C)(C)C)c1 [GW439255X]
ΔTm at 10 µM [1, 9]: 2.66 °C
